Results reported in patent US9346780B2, “Process for producing dihydro-2H-pyran derivatives” (OKINAWA INSTITUTE OF SCIENCE AND TECHNOLOGY SCHOOL …, priority 2012, dated 2016).

Assay: Cytotoxicity, K562 cell growth inhibition (Cell Counting Kit-8 / WST-8)
Type: cell-based
Conditions: human; K562 cells; 6-48 hrs incubation; WST-8 absorbance at 450 nm; concentration inhibiting the cell growth by 50%
Description: K562 cells (American Type Culture Collection) were cultured in a culture medium containing 10% (v/v) fetal calf serum (FCS) (manufactures by Sigma) to logarithmic phase. The cells were seeded in 96-well microtiter plate at a density of 5000 cells/well in 100 μL cell culture medium and incubated at 37° C. and 5% CO2 in a humidified incubator overnight. The test compounds of various concentrations were added in a well at 10 fold concentration in 1/10 volume of medium without FCS. After 6-48 hrs incubation at 37° C. in the CO2 incubator, 10 μL solution of the viable cell counting reagent, Cell counting Kit-8 (5 mmol/L WST-8, 0.2 mmol/L 1-Methoxy PMS, 150 mmol/L NaCl) (manufactured by Dojindo) was added to each well, and reacted for 1 to 4 hours in the CO2 incubator. After the incubation, an absorbance of formazan, generated by reduction of WST-8 was determined at 450 nm using a microplate reader.
The assay readout is correlated with the viable cell numbers. Small values correspond to high inhibition and larger values to low inhibition of the cell growth. To determine IC50 values (i.e. the concentration inhibiting the cell growth by 50%) of the compounds of formula II, IV and V, several assays were made with a range of concentrations chosen empirically to give low, high and intermediate inhibition of the growth and determined using the curve fitting software.
IC50 values can be converted logarithmically to pIC50 values (−log IC50), in which higher values indicate exponentially greater potency. The IC50 value is not an absolute value but depends on experimental conditions e.g. concentrations employed.

Point of comparison: `CCOC(=O)C1=CC(c2ccc(Cl)cc2)CC(F)(C(=O)OCC)O1` (stereo not drawn), IC50 52 µM. Against it:
- CCOC(=O)C1=CC(c2ccc(Br)cc2)CC(F)(C(=O)OCC)O1 (stereo not drawn) — within 1.5-fold, 53 µM
- O=C(OCc1ccccc1)[C@]1(O)C[C@H](c2ccccc2)C[C@](O)(C(=O)OCc2ccccc2)[C@H]1[N+](=O)[O-] — within 1.5-fold, 54 µM
- CCOC(=O)[C@]1(O)C[C@H](c2ccc(Br)cc2)C[C@](O)(C(=O)OCC)[C@H]1[N+](=O)[O-] — 2.8-fold higher, 144 µM
- CCOC(=O)C1=CC(c2ccc([N+](=O)[O-])cc2)CC(F)(C(=O)OCC)O1 (stereo not drawn) — 4.7-fold lower, 11 µM
- CCOC(=O)C1=CC(c2ccc([N+](=O)[O-])cc2)CC(C(=O)OCC)=NN1 (stereo not drawn) — 2.8-fold higher, 148 µM
- CCOC(=O)[C@]1(O)C[C@H](C2CCCCC2)C[C@](O)(C(=O)OCC)[C@H]1[N+](=O)[O-] — 2-fold higher, 105 µM
- CCOC(=O)C1=CC(c2ccc(Br)cc2)CC(O)(C(=O)OCC)O1 (stereo not drawn) — 1.5-fold higher, 80 µM
- O=C(OCc1ccccc1)C1=CC(c2ccccc2)CC(O)(C(=O)OCc2ccccc2)O1 (stereo not drawn) — 2.9-fold higher, 149 µM
- CCOC(=O)C1=CC(c2ccc([N+](=O)[O-])cc2)CC(Nc2ccc(OC)cc2)(C(=O)OCC)O1 (stereo not drawn) — 4.3-fold lower, 12 µM
- CCOC(=O)C1=CC(C2CCCCC2)CC(O)(C(=O)OCC)O1 (stereo not drawn) — within 1.5-fold, 58 µM
- COC(=O)[C@@]1(O)C[C@@H](c2ccc([N+](=O)[O-])cc2)C[C@@](O)(C(=O)OCc2ccccc2)[C@@H]1[N+](=O)[O-] — 1.7-fold higher, 90 µM
- COC(=O)C1=CC(c2ccc([N+](=O)[O-])cc2)CC(O)(C(=O)OCc2ccccc2)O1 (stereo not drawn) — 1.6-fold higher, 81 µM
- CCOC(=O)C1=CC(c2ccco2)CC(F)(C(=O)OCC)O1 (stereo not drawn) — 2.6-fold higher, 135 µM
- CCOC(=O)[C@]1(O)C[C@H](c2ccc(C(F)(F)F)cc2)C[C@](O)(C(=O)OCC)[C@H]1[N+](=O)[O-] — 2.8-fold higher, 144 µM
